Measured values as given in article PMC9871955, “High-throughput screening of SARS-CoV-2 main and papain-like protease inhibitors” (Protein & Cell, 2022).
Read-outs that look alike come from different tables or passages of the source.

Biological target: SARS-CoV-2 PL^pro (Severe acute respiratory syndrome coronavirus 2, UniProt P0DTD1)
Experiment: SARS-CoV-2 PL^pro enzymatic inhibition assay (substrate Z-RLRGG-AMC)
Assay type: biochemical
[1] = Table S2, PL^pro inhibitors, 40 nmol/L enzyme, 50 µmol/L substrate, read-out: IC50
[2] = Table S3, representative dual inhibitors, read-out: IC50 for PL^pro
[3] = Table S6, S/KM = 1/4, read-out: IC50 (μM) at S/KM 1/4
[4] = Table S6, S/KM = 2, read-out: IC50 (μM) at S/KM 2
[5] = Table S6, S/KM = 4, read-out: IC50 (μM) at S/KM 4
[6] = read-out: IC50 (μM) at S/KM 1/2
[7] = read-out: IC50 / inhibitory activity toward PL^pro
[8] = read-out: IC50 (μM) at S/KM 1/4

| SMILES | IC50 [1] [µM] | IC50 [2] [µM] | IC50 [3] [µM] | IC50 [4] [µM] | IC50 [5] [µM] | IC50 (read-out: IC50 (μM) at S/KM 1) [µM] | IC50 [6] [µM] | IC50 (Table S6, S/KM = 1, read-out: IC50 (μM) at S/KM 1) [µM] | IC50 [7] [µM] | IC50 [8] [µM] |
| --- | --- | --- | --- | --- | --- | --- | --- | --- | --- | --- |
| CCOc1cc(C(=O)NCc2n[nH]c(=S)n2-c2ccc(Br)cc2)cc(OCC)c1OCC [JK0109-B004] | 43 ± 0.92 | 43 ± 0.9 | 2.4 ± 0.1 | 8.5 ± 0.9 | 18.3 ± 1 | 5.9 ± 0.6 | 2.6 ± 0.5 | – | – | – |
| CCC(C(=O)NCc1ccco1)n1c(Cc2c(Cl)cccc2Cl)nc2ccccc21 (stereo not shown) [CD3226-D010] | 8.61 ± 3.07 | – | 7.6 ± 1 | – | – | – | – | – | – | – |
| O=C(NCc1n[nH]c(=S)n1-c1ccc(Br)cc1)c1ccc(Cl)cc1Cl [JK0108-D008] | 58.8 ± 15.3 | – | 100 ± 29.6 | 200 ± 47.6 | 133 ± 14.7 | – | 94.6 ± 11.3 | 102 ± 1.2 | 58.8 ± 15.3 | – |
| CC(C(=O)NCc1ccco1)n1c(Cc2c(Cl)cccc2Cl)nc2ccccc21 (stereo not shown) [CD3531-C011] | 1.98 ± 0.23 | – | – | 2.4 ± 0.2 | 2.7 ± 0.1 | 2.2 ± 0.3 | 1.5 | – | – | 1.5 ± 0.4 |
| O=C(COc1ccc(Cl)cc1)NCc1n[nH]c(=S)n1-c1ccc(Br)cc1 [JK0109-H005] | – | – | – | 78.5 ± 5.7 | 91.6 ± 8.9 | 33 ± 17.9 | 21.9 ± 2 | – | – | – |
| COc1ccc(-n2c(S)nnc2CNC(=O)c2cc(OC)c(OC)c(OC)c2)cc1 [JK0109-C011] | 21.2 ± 1.79 | 21.2 ± 1.8 | – | 10.7 ± 0.7 | 18.6 ± 2.7 | 9.4 ± 2.9 | 7.1 ± 0.7 | – | – | 5.9 ± 0.2 |
| O=c1sc2ccccc2n1Cc1n[nH]c(=S)n1-c1ccccc1 [JK0946-F007] | – | – | – | 105 ± 4.7 | 202 ± 50.9 | 43.9 ± 9 | 30.3 ± 2.3 | – | – | – |
| COc1ccc(-n2c(CNC(=O)COc3ccc(Cl)cc3Cl)n[nH]c2=S)cc1 [JK0109-B011] | 6.01 ± 0.02 | – | – | 12.4 ± 1.7 | – | 7.3 ± 0.1 | 7.4 ± 0.6 | – | 6 | 7.9 ± 1.7 |
